Assay results as given in paper PMC12787074, “Involvement of Multiple Ion Channels and Receptors in Mediating the Insecticidal and Repellent Actions of Limonene” (International Journal of Molecular Sciences, 2025).
One block for each compound: values may come before it.

Key:
Type in all cases: cell-based
[1] = molecular target: T1, AaegRdl1-1 (Rdl, resistance to dieldrin GABA receptor) (Aedes aegypti, UniProt Q16896); assay: two-electrode voltage clamp in Xenopus oocytes; agonist-evoked chloride current
T1 construct: AaegRdl1-1 clone expressed in Xenopus oocytes
T1 sequence (Q16896 entry or part of it): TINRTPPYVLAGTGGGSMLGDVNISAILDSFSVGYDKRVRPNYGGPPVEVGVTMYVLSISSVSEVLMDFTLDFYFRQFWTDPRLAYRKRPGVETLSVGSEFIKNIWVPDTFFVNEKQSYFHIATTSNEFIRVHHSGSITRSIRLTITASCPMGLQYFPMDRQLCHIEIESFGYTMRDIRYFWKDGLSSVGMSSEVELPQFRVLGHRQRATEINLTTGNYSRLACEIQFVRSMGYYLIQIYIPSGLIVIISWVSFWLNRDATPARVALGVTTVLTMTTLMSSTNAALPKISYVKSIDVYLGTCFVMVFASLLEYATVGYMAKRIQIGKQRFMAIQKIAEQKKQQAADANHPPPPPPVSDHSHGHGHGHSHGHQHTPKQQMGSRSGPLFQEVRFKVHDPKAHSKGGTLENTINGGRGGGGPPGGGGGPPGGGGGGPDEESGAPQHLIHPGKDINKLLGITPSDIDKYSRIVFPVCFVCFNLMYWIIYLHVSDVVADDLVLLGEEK

[2] = molecular target: T1, AaegRdl1-1 (Rdl, resistance to dieldrin GABA receptor); assay: two-electrode voltage clamp in Xenopus oocytes; block of GABA current
[3] = molecular target: T1, AaegRdl1-1 (Rdl, resistance to dieldrin GABA receptor); assay: two-electrode voltage clamp in Xenopus oocytes; potentiation of […] GABA current

EC50 [1]: 204 ± 18.3 µM
Structure (SMILES): NCCCC(=O)O [GABA]

Structure (SMILES): N#Cc1nn(-c2c(Cl)cc(C(F)(F)F)cc2Cl)c(N)c1[S+]([O-])C(F)(F)F (stereo not drawn) [fipronil]
two-electrode voltage clamp in Xenopus oocytes; block of GABA current [2]: IGABA was blocked by the application of a positive control, fipronil, as expected (Supplementary Figure S2)

EC50 [3]: 43.3 ± 4.6 µM
Structure (SMILES): C=C(C)[C@H]1CC=C(C)CC1 [limonene]
